Assay results as given in ChEMBL document CHEMBL2390860, “Chemical constituents from Nelumbo nucifera leaves and their anti-obesity effects” (Bioorg Med Chem Lett, 2013).
Active and inactive are the calls of the source. The rule behind the calls is not given here.

Columns and labels:
[1] = biological target: T1, Pancreatic triacylglycerol lipase (Sus scrofa) (UniProt P00591); test: Inhibition of porcine pancreatic lipase using para-nitrophenyl butyrate as substrate at 100 uM by ELISA
T1 sequence (whole entry): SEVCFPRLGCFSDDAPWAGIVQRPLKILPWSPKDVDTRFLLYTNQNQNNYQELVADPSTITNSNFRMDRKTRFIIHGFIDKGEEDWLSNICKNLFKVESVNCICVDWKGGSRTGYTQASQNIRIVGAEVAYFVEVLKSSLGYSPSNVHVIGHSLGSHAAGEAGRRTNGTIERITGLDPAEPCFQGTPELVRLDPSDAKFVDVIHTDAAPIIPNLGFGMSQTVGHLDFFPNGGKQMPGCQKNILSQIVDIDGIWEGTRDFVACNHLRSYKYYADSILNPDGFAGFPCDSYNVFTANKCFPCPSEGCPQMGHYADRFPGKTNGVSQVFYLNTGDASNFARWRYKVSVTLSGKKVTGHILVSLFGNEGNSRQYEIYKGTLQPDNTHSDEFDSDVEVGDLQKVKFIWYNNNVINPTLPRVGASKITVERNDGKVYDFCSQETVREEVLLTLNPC

3T3-L1 = test: Antiobesity activity in mouse 3T3L1 cells assessed as reduction of fat accumulation at 100 uM by oil Red O staining-based ELISA; format: functional, cell-based

Structure (SMILES) | Lipase inhibition (active/not active) [1] | Activity (3T3-L1)
COc1cc(-c2oc3cc(O[C@@H]4O[C@H](CO)[C@@H](O)[C@H](O)[C@H]4O)cc(O)c3c(=O)c2O)ccc1O | inactive | Active
CC(=O)/C=C\[C@@H]1[C@@H](C)C[C@@H](O[C@@H]2O[C@H](CO)[C@@H](O)[C@H](O)[C@H]2O)CC1(C)C | inactive | inactive
O=C1CC[C@@H]2c3cc(O)c(O)cc3CCN12 | Active | 
Oc1ccc([C@H]2Oc3c(O)c(O)c(O)c(O)c3C[C@@H]2O)cc1O | Active | 
Oc1cc(O)c2c(c1)O[C@@H](c1ccc(O)c(O)c1)[C@H](O)C2 | Active | 
O=c1c(O[C@@H]2O[C@H](CO)[C@@H](O)[C@H](O)[C@H]2O)c(-c2ccc(O)cc2)oc2cc(O)cc(O)c12 | inactive | Active
CC(=O)/C=C/[C@H]1C(C)=C[C@H](O[C@@H]2O[C@H](CO)[C@@H](O)[C@H](O)[C@H]2O)CC1(C)C | inactive | inactive
CC(=O)/C=C/[C@@]12O[C@]1(C)C[C@@H](O)CC2(C)C | inactive | Active
O=c1c(O[C@@H]2O[C@H](CO)[C@@H](O)[C@H](O)[C@H]2O)c(-c2ccc(O)c(O)c2)oc2cc(O)cc(O)c12 | inactive | Active
CC(=O)C=C=C1C(C)(C)C[C@H](O)C[C@@]1(C)O | inactive | inactive
CC(=O)/C=C/[C@H]1[C@H](C)C[C@H](O)CC1(C)C | inactive | inactive
COc1cc(/C=C\C(=O)NCCc2ccc(O)cc2)ccc1O | Active | inactive
CC(=O)/C=C/[C@@]12O[C@]1(C)C[C@@H](O[C@@H]1O[C@H](CO)[C@@H](O)[C@H](O)[C@H]1O)CC2(C)C | inactive | inactive
COc1cc2c3c(c1OC)C1(C=CC(=O)C=C1)C[C@H]3N(C)CC2 | Active | 
CC(=O)/C=C/[C@@]1(O)C(C)=CC(=O)CC1(C)C | inactive | inactive
CC1=CC(=O)CC(C)(C)/C1=C/C[C@H](C)O | inactive | inactive

Structure (SMILES) | Lipase inhibition (active/not active) [1] | Activity (3T3-L1)
CC(=O)/C=C/[C@]12O[C@@]1(C)C[C@@H](O)CC2(C)C | inactive | Active
CC1=CC(=O)CC(C)(C)[C@@]1(O)/C=C/[C@@H](C)O | inactive | inactive
CC(=O)/C=C/[C@]1(O)[C@@H](C)C[C@@H](O)CC1(C)C | inactive | inactive
CC1=C2C[C@@H](C(C)(C)O[C@@H]3O[C@H](CO)[C@@H](O)[C@H](O)[C@H]3O)CC[C@@]2(C)CCC1=O | inactive | inactive
O=c1c(O)c(-c2ccc(O)c(O)c2)oc2cc(O)cc(O)c12 | Active | Active
O=c1cc(-c2ccc(O)c(O)c2)oc2cc(O)cc(O)c12 | Active | Active
O=C1c2c(O)cc(O)cc2O[C@@H](c2ccc(O)c(O)c2)[C@H]1O | Active | Active
O=C1c2c(O)cc(O)cc2O[C@H](c2ccc(O)c(O)c2)[C@H]1O | Active | 
COc1cc(/C=C/C(=O)NCCc2ccc(O)cc2)ccc1O | Active | inactive
CC1(C)C[C@@H](O)C[C@@]2(C)OC(=O)C=C12 | inactive | inactive
O=C1c2ccccc2-c2c3c(cc4ccnc1c24)OCO3 | Active | Active
O=C(/C=C/c1ccc(O)cc1)NCCc1ccc(O)cc1 | Active | inactive
C[N+]1([O-])CCc2cc3c(c4c2[C@H]1Cc1ccccc1-4)OCO3 (some centres undefined) | Active | Active
O=c1c(O)c(-c2ccc(O)cc2)oc2cc(O)cc(O)c12 | Active | Active
O=C(/C=C\c1ccc(O)cc1)NCCc1ccc(O)cc1 | Active | inactive
CC(=O)C=C=C1C(C)(C)C[C@H](O)C[C@]1(C)O | inactive | inactive
